Results: US7977322B2 (Vertex Pharmaceuticals Incorporated, priority 2004, dated 2011)

Target: T1, ΔF508-CFTR (Homo sapiens, UniProt P13569, DEL508-508)
T1 construct: expressed in transfected cells
Experiment: Membrane potential optical (FRET/VIPR) assay, identification of correction compounds
Format: cell-based
Conditions: Table 3, assay not given; for Emax: read-out: % Activity / % Efficacy (relative efficacy)
In short: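 NIH3T3 mouse fibroblasts stably expressing ΔF508-CFTR were exposed to compound for 16 h at 37° C in serum-free medium, then loaded with DiSBAC2(3)/CC2-DMPE. After addition of 10 μM forskolin plus 20 μM genistein in Cl⁻-free gluconate bath (pH 7.4), depolarization from Cl⁻ efflux was read by FRET (VIPR II).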

T1 sequence (P13569 with tags, fused parts or gaps DEL508-508): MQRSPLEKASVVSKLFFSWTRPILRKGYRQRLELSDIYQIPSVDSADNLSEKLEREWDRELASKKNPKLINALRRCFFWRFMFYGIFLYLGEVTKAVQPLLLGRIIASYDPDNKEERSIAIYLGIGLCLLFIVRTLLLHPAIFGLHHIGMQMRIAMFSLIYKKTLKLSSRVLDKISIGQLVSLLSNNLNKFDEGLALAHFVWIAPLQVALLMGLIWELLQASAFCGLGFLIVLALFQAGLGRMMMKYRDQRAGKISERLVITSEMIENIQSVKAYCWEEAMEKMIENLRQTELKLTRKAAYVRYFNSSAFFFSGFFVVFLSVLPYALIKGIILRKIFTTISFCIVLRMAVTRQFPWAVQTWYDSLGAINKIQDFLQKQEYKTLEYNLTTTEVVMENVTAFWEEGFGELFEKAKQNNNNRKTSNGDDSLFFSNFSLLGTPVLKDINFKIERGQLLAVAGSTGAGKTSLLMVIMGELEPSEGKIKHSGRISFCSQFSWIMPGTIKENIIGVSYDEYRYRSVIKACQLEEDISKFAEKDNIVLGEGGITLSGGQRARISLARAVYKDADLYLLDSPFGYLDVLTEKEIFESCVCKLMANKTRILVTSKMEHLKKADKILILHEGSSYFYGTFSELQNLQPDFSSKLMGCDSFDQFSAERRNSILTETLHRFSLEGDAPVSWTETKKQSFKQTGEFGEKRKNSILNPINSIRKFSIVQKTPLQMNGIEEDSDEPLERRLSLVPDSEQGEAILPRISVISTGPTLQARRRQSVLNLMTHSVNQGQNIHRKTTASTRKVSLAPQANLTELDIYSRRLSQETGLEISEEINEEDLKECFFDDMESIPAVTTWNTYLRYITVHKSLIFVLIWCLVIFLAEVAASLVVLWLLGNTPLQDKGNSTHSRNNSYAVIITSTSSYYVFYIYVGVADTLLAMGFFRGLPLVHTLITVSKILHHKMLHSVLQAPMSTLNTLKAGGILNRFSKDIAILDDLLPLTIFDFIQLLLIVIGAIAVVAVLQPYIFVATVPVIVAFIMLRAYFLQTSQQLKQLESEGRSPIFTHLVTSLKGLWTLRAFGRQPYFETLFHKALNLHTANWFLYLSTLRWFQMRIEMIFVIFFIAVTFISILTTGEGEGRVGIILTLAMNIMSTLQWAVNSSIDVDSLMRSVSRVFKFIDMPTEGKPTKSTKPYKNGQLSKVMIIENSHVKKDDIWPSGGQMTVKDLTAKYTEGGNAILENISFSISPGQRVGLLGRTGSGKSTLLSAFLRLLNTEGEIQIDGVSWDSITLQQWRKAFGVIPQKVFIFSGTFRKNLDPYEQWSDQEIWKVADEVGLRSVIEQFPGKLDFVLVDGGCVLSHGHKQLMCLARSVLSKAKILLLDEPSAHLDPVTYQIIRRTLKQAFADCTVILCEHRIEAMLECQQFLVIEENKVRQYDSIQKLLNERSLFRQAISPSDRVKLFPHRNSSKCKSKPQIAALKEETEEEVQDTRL

Row | SMILES | % Activity / % Efficacy (relative efficacy) | EC50 | Emax
1 | COc1ccc(C2(C(=O)Nc3ncc(C4(c5ccccc5OC)CC4)s3)CC2)cc1 [Example 243] | +++ (“+++” means>100%) | < 10 µM | 
2 | COc1ccc(C2(C(=O)Nc3ncc(Cc4ccccc4C)s3)CC2)cc1 [Example 280] | +++ (“+++” means>100%) | < 10 µM | 
3 | COC[C@@H]1CCCN1C(c1ccccc1)c1cnc(NC(=O)C2(c3ccc4c(c3)OCO4)CC2)s1 (some centres unmarked) [Example 347] |  | 10 to 25 µM | > 100%
4 | CC(C)C[C@H](CO)NC(c1cnc(NC(=O)C2(c3ccc4c(c3)OCO4)CC2)s1)c1ccccc1Cl (some centres unmarked) [Example 438] |  | < 10 µM | > 100%
5 | O=C(Nc1nc(-c2ccc(Cl)cc2Cl)cs1)C1(c2ccc3c(c2)OCO3)CC1 [Example 126] | +++ (“+++” means>100%) | < 10 µM | 
6 | O=C(Nc1ncc(C(c2ccccc2)N2CC[C@@H](O)C2)s1)C1(c2ccc3c(c2)OCO3)CC1 (some centres unmarked) [Example 368] |  | 10 to 25 µM | > 100%
7 | CS(=O)(=O)Nc1cccc(C2(C(=O)Nc3ncc(Cc4ccccc4Cl)s3)CC2)c1 [Example 308] |  | < 10 µM | 25 to 100%
8 | COc1ccc(C2(C(=O)Nc3ncc(Cc4ccncc4Cl)s3)CC2)cc1 [Example 262] | +++ (“+++” means>100%) | < 10 µM | 
9 | CCOc1ccccc1C(NC(CO)C(C)C)c1cnc(NC(=O)C2(c3ccc4c(c3)OCO4)CC2)s1 (centres unmarked) [Example 478] |  |  | > 100%
10 | O=C(Nc1ncc(Sc2ccccc2)s1)C1(c2ccc3c(c2)OCO3)CC1 [Example 105] | +++ (“+++” means>100%) | < 10 µM | 
11 | COc1cccc(F)c1Cc1cnc(NC(=O)C2(c3ccc4c(c3)OCO4)CC2)s1 [Example 196] | +++ (“+++” means>100%) | < 10 µM | 
12 | O=C(Nc1ncc(Cc2ccccc2Cl)s1)C1(c2ccc(F)cc2)CCCC1 [Example 26] |  | < 10 µM | > 100%
13 | Cc1ccccc1C(N[C@@H](CO)CC(C)C)c1cnc(NC(=O)C2(c3ccc4c(c3)OCO4)CC2)s1 (some centres unmarked) [Example 477] |  | < 10 µM | > 100%
14 | CN(C)CC(=O)Nc1ccc(C2(C(=O)Nc3ncc(Cc4ccccc4Cl)s3)CC2)cc1 [Example 312] |  | < 10 µM | 25 to 100%
15 | COC(c1cnc(NC(=O)C2(c3ccc4c(c3)OCO4)CC2)s1)c1ccccc1Cl (centres unmarked) [Example 260] | +++ (“+++” means>100%) | < 10 µM | 
16 | COc1ccccc1C(c1cnc(NC(=O)C2(c3ccc4c(c3)OCO4)CC2)s1)N1CCC(O)CC1 (centres unmarked) [Example 348] |  | 10 to 25 µM | > 100%
17 | COc1ccccc1Cc1cnc(NC(=O)C2(c3ccccc3OC)CC2)s1 [Example 70] | ++ (“++” means between 25% to 100%) | < 10 µM | 
18 | COc1ccc(C2(C(=O)Nc3ncc(Cc4cc(F)ccc4OC)s3)CC2)cc1 [Example 179] | +++ (“+++” means>100%) | < 10 µM | 
19 | Cc1ccc(-c2csc(NC(=O)C3(c4ccc5c(c4)OCO5)CC3)n2)cc1 [Example 82] | +++ (“+++” means>100%) | < 10 µM | 
20 | O=C(Nc1ncc(C(c2ccccc2)N2CCOCC2)s1)C1(c2ccc3c(c2)OCO3)CC1 (centres unmarked) [Example 369] |  | < 10 µM | > 100%
21 | O=C(Nc1ncc(C(c2ccccc2)N2CCCCC2)s1)C1(c2ccc3c(c2)OCO3)CC1 (centres unmarked) [Example 371] |  | < 10 µM | > 100%
22 | COc1ccc(C2(C(=O)Nc3ncc(Cc4cc(F)ccc4Cl)s3)CC2)cc1 [Example 90] | ++ (“++” means between 25% to 100%) | < 10 µM | 
23 | COC[C@@H]1CCCN1C(Cc1ccccc1Cl)c1cnc(NC(=O)C2(c3ccc4c(c3)OCO4)CC2)s1 (some centres unmarked) [Example 456] |  | < 10 µM | > 100%
24 | O=C(Nc1ncc(C(Cc2ccccc2Cl)N2CC[C@@H](O)C2)s1)C1(c2ccc3c(c2)OCO3)CC1 (some centres unmarked) [Example 462] |  | < 10 µM | > 100%
